The source of these data is patent publication US9403855B2 (priority 2010, dated 2016).

Each structure is given as a SMILES string.

Test [1] deals with T1, H274Y neuraminidase mutant from A/WSN/1933 (H1N1) (Influenza A virus, UniProt P03470, H259Y). The test can be described thus: biochemical. Details: species or system Influenza virus A/WSN/1933 (H1N1) H274Y mutant.
The target in test [2] is T1, H274Y neuraminidase mutant from A/WSN/1933 (H1N1). The test can be described thus: cell-based. Details: species or system Influenza virus A/WSN/1933 (H1N1) H274Y mutant.

For orientation: IC50 means the midpoint of a concentration-inhibition curve. Higher therefore signals lower potency. By EC50 is commonly meant the concentration that produces a half-maximal response.

In test [1], `CC(=O)N[C@H]1[C@H]([C@H](O)[C@H](O)CO)OC(P(=O)(O)O)=C[C@@H]1N` [1a, (5-Acetamido-4-amino-6-(1,2,3-hydroxy)propyl-4,5,6-trihydropyran-2-yl) phosphonic acid] gave an IC50 of 0.5 nM. Also, in test [2], the EC50 worked out at 27 nM.

`CC(=O)N[C@H]1[C@H]([C@H](O)[C@H](O)CO)OC(P(=O)(O)O)=C[C@@H]1NC(=N)N` [1b, (5-Acetamido-4-guanidino-6-(1,2,3-hydroxy)propyl-4,5,6-trihydropyran-2-yl) phosphonic acid] had an IC50 in test [1] of 0.25 nM. Also, in test [2], the EC50 is 26 nM.
